A short description of data set [1]: Subjective rating of drug suspensions immediately after preparation (ease of preparation, homogeneity, viscosity). The format is physicochemical. The following applies: for Homogeneity: scale 0-10, 0=drug settles completely and immediately, 10=consistently homogenous; for Viscosity: subjective scale 0-10, 0=water, 10=thick molasses; for phase separation of the suspending agent from the liquid phase: drug preparation in OO. Here is the method:
(§1) Suspensions of baclofen, bethanechol chloride, labetalol hydrochloride, verapamil hydrochloride, or ibuprofen were prepared in VE1 or OO. […] The wetted powder was incorporated into 50 ml VE1 or OO by geometric dilution and stored in individual non-opaque containers. […] The concentrations of the pharmaceutical compounds in suspension represent ‘typical’ prescribed preparations.
The suspensions were evaluated immediately after preparation with respect to ease of preparation, homogeneity, and viscosity by the pharmaceutical technician preparing the suspensions. The suspensions were rated on a subjective scale of 0-10: ease of preparation, 0=difficult, 10=very easy; homogeneity, 0=drug settles completely and immediately, 10=consistently homogenous in appearance along the vertical axis; viscosity, 0=water, 10=thick molasses.

The nature of data set [2]: Settling and resuspendability of drug suspensions after 7 days storage. The format is physicochemical. The conditions noted are these: for Settling: 7 days, dark, room temperature, scale 0-10, 10=none, 0=all at bottom; for Resuspendability: after 7 days, moderate shaking, scale 0-10, 10=perfectly homogenous. Here is the method: as §1
The suspensions were stored in the dark at room temperature for 7 days and then settling of the drugs and resuspendability of sedimented drug in OO or VE1 was evaluated. Settling and resuspendability of the drugs was rated on a subjective scale of 0-10: settling (how much product apparent at bottom of container, 10=none, 0=all); resuspendability (how homogenous does the product appear after moderate shaking, 10=perfectly homogenous, 0=not homogenous (heterogeneous)). Resuspendability of sedimented ingredients was evaluated after evaluation of settling. The suspensions were shaken deliberately (stepwise), with frequent inspections of the bottom of the container.

[3] abbreviates: drug suspension in OO, listed as bethanechol chloride.
Where [4] appears, read: drug suspension in OO, hydrochloride.
Setting [5] is: drug suspension in OO, listed as ibuprofen.
Where [6] appears, read: drug suspension in OO, listed as verapamil hydrochloride, hydrochloride.

These results are taken from US8986729B2, “Palatable suspending vehicle for pharmaceutical ingredients” (Fagron, Inc., priority 2004, dated 2015).

Molecules are shown by their SMILES. Structures can show the parent of a compound that is named as a salt.

With `CC(C[N+](C)(C)C)OC(N)=O` (stereo not drawn) [Bethanechol Chloride, bethanechol chloride], the Homogeneity in data set [1] (drug suspension in OO) and in data set [1] (drug suspension in VE1) was 9 in each case. For the same compound, the Viscosity came to 5 in data set [1] (drug suspension in OO) and 7 in data set [1] (drug suspension in VE1). The results for the Settling in data set [2] (drug suspension in OO), in data set [2] (setting [3]) and in data set [2] (drug suspension in VE1) were 6, “minimal to moderate sedimentation” and 8, respectively. For the same compound, the values for the Resuspendability in data set [2] (drug suspension in OO), in data set [2] (setting [3]) and in data set [2] (drug suspension in VE1) were 9, “easily resuspended” and 9, respectively.

Turning to `CC(CCc1ccccc1)NCC(O)c1ccc(O)c(C(N)=O)c1` (stereo not drawn) [Labetalol Hydrochloride, labetalol hydrochloride], the “phase separation of the suspending agent from the liquid phase” value in data set [1] is reported as “phase separation”. The Homogeneity in data set [1] (drug suspension in OO) was 3; in data set [1] (drug suspension in VE1), 9. The Viscosity in data set [1] (drug suspension in OO) is reported as 1; in data set [1] (drug suspension in VE1) it was 7. The Settling was 2 in data set [2] (setting [4]); “large portion” in data set [2] (drug suspension in OO, listed as labetalol hydrochloride, hydrochloride); 9 in data set [2] (drug suspension in VE1). Also, the Resuspendability in data set [2] (setting [4]) is listed as 3; in data set [2] (drug suspension in OO, listed as Labetalol hydrochloride, hydrochloride) it was “more difficult to resuspend”; in data set [2] (drug suspension in VE1), 9.

For the compound `CC(C)Cc1ccc(C(C)C(=O)O)cc1` (stereo not drawn) [Ibuprofen, ibuprofen], the Homogeneity in data set [1] (drug suspension in OO) and in data set [1] (drug suspension in VE1) was 9 throughout. In addition, the Viscosity in data set [1] (drug suspension in OO) is 4; in data set [1] (drug suspension in VE1), 7. Moreover, the figures for the Settling in data set [2] (drug suspension in OO), in data set [2] (setting [5]) and in data set [2] (drug suspension in VE1) were 7, “minimal to moderate sedimentation” and 8, respectively. Further, the Resuspendability in data set [2] (drug suspension in OO) is 9; in data set [2] (setting [5]), “easily resuspended”; in data set [2] (drug suspension in VE1), 9.

For `COc1ccc(CCN(C)CCCC(C#N)(c2ccc(OC)c(OC)c2)C(C)C)cc1OC` (stereo not drawn) [Verapamil Hydrochloride, verapamil hydrochloride], the “phase separation of the suspending agent from the liquid phase” value in data set [1] is given as “phase separation”. The Homogeneity is given as 8 in data set [1] (drug suspension in OO) and 9 in data set [1] (drug suspension in VE1). In addition, the Viscosity in data set [1] (drug suspension in OO) was 2; in data set [1] (drug suspension in VE1), 7. Further, the Settling in data set [2] (setting [4]) is 2; in data set [2] (setting [6]) it was “large portion”; in data set [2] (drug suspension in VE1) it was 7. Besides, the results for the Resuspendability in data set [2] (setting [4]), in data set [2] (setting [6]) and in data set [2] (drug suspension in VE1) were 6, “more difficult to resuspend” and 9, respectively.

In data set [1] (drug suspension in OO), `NCC(CC(=O)O)c1ccc(Cl)cc1` (stereo not drawn) [Baclofen, baclofen] gave a Homogeneity of 9 and a Viscosity of 6. Moreover, in data set [1] (drug suspension in VE1), the Homogeneity is 9 and the Viscosity worked out at 7. In data set [2] (drug suspension in VE1), this compound had a Settling of 8 and a Resuspendability of 9.
